Read-outs that look alike come from different tables or passages of the source.
Key:
[1] = cited from earlier work
[2] = test system: GXA 3054 gastric cancer PDX model; test: GXA 3054 gastric cancer PDX model, tumor growth inhibition; type: in vivo, Mice; conditions: study day 17, tucatinib 50 mg/kg orally twice per day, trastuzumab 20 mg/kg IP once every three days
Method: (§1) The term “tumor growth inhibition (TGI) index” refers to a value used to represent the degree to which an agent (e.g., tucatinib, an anti-HER2 antibody, or a combination thereof) inhibits the growth of a tumor when compared to an untreated control. The TGI index is calculated for a particular time point (e.g., a specific number of days into an experiment or clinical trial) according to the following formula:
(§2) [formula] where “Tx Day 0” denotes the first day that treatment is administered (i.e., the first day that an experimental therapy or a control therapy (e.g., vehicle only) is administered) and “Tx Day X” denotes X number of days after Day 0.
(§3) Tucatinib was administered orally at a dose of 50 mg/kg twice per day for 28 days (study days 0-27). […] A vehicle-only group was included as a negative control.

CTG-0784 CRC PDX model = test: CTG-0784 CRC PDX model, tumor growth inhibition; type: in vivo, Mice; conditions: study day 29, tucatinib 50 mg/kg orally twice per day, trastuzumab 20 mg/kg IP once every three days
Method: as §1, §2, §3

[3] = test system: GXA 3038 gastric cancer PDX model; test: GXA 3038 gastric cancer PDX model, tumor growth inhibition; type: in vivo, Mice; conditions: study day 28, tucatinib 50 mg/kg orally twice per day, trastuzumab 20 mg/kg IP once every three days
Method: as §1, §2, §3

[4] = test system: NCI-H2170 NSCLC xenograft model; test: NCI-H2170 NSCLC xenograft model, tumor growth inhibition; type: in vivo, Mice; conditions: study day 39, tucatinib 50 mg/kg orally twice per day, trastuzumab 20 mg/kg IP twice per week, from study day 18
Method: as §1, §2
(§4) For the Calu-3 study, tucatinib was administered orally at a dose of 50 mg/kg twice per day for 21 days, beginning on study day 7. […] A vehicle-only group was included as a negative control.
For the NCI-H2170 study, tucatinib was administered orally at a dose of 50 mg/kg twice per day for 21 days, beginning on study day 18. […] A vehicle-only group was included as a negative control.

CTG-0121 CRC PDX model = test: CTG-0121 CRC PDX model, tumor growth inhibition; type: in vivo, Mice; conditions: study day 29, tucatinib 50 mg/kg orally twice per day, trastuzumab 20 mg/kg IP once every three days
Method: as §1, §2, §3

[5] = test system: CTG-0138 esophageal cancer PDX model; test: CTG-0138 esophageal cancer PDX model, tumor growth inhibition; type: in vivo, Mice; conditions: study day 30, tucatinib 50 mg/kg orally twice per day, trastuzumab 20 mg/kg IP once every three days
Method: as §1, §2, §3

[6] = test system: Calu-3 NSCLC xenograft model; test: Calu-3 NSCLC xenograft model, tumor growth inhibition; type: in vivo, Mice; conditions: study day 28, tucatinib 50 mg/kg orally twice per day, trastuzumab 20 mg/kg IP once every three days, from study day 7
Method: as §1, §2, §4

[7] = test system: CTG-0927 HER2 positive cholangiocarcinoma PDX model; test: CTG-0927 cholangiocarcinoma PDX model, tumor growth inhibition; type: in vivo, Mice; conditions: study day 28, tucatinib 50 mg/kg orally twice per day, trastuzumab 20 mg/kg IP once every three days
Method: as §1, §2, §3

[8] = test system: GXA 3039 gastric cancer PDX model; test: GXA 3039 gastric cancer PDX model, tumor growth inhibition; type: in vivo, Mice; conditions: study day 29, tucatinib 50 mg/kg orally twice per day, trastuzumab 20 mg/kg IP once every three days
Method: as §1, §2, §3

[9] = test system: CTG-0137 esophageal cancer PDX model; test: CTG-0137 esophageal cancer PDX model, tumor growth inhibition; type: in vivo, Mice; conditions: study day 15, tucatinib 50 mg/kg orally twice per day, trastuzumab 20 mg/kg IP once every three days
Method: as §1, §2, §3

Calu-3 cells = test: Response of Calu-3 cells in vitro; type: cell-based; conditions: previously demonstrated
CTG-0383 CRC PDX model = test: CTG-0383 CRC PDX model, tumor growth inhibition; type: in vivo, Mice; conditions: study day 29, tucatinib 50 mg/kg orally twice per day, trastuzumab 20 mg/kg IP once every three days
Method: as §1, §2, §3

NCI-H2170 cells = test: Response of NCI-H2170 cells in vitro; type: cell-based; conditions: previously demonstrated
[10] = Clinical safety observations in patients; type: in vivo, human; conditions: patients on tucatinib studies
Excerpt: Cardiac function is therefore monitored closely.
Monitoring of liver function tests is required for any patient taking tucatinib.
Patients with brain metastases are at risk for occurrence of AEs due to the presence of CNS lesions, progression of disease and toxicities potentially related to study treatment. On occasion, treatment of brain metastases with systemic or radiation therapy has been associated with localized edema thought to be due to treatment effect and not tumor progression. […] The patient's symptoms responded rapidly and completely to systemic corticosteroids. It was not known if this patient's symptoms were due to local progression or treatment-related toxicity. […] The patient was taken for surgical resection, and found to have no viable tumor. The resected lesion was thought to represent treatment-related necrosis.

[11] = attributed to anti-EGFR/HER1 activity of the drug; cited from earlier work
[12] = test system: HER2 positive metastatic CRC (wild-type KRAS exon 2); conditions: HERACLES patients, previous treatment with cetuximab or panitumumab; cited from earlier work
[13] = Table 11, strong inhibitors or inducers of CYP3A4
[14] = Table 10, strong inhibitors and inducer of CYP2C8

For `NC(=O)N1c2ccccc2C=Cc2ccccc21` [Carbamazepine], the “Elimination Half-life” value [1, 13] is given as 25 to 65 h.

In the case of `CC[C@H]1OC(=O)[C@H](C)[C@@H](O[C@H]2C[C@@](C)(OC)[C@@H](O)[C@H](C)O2)[C@H](C)[C@@H](O[C@@H]2O[C@H](C)C[C@H](N(C)C)[C@H]2O)[C@](C)(OC)C[C@@H](C)C(=O)[C@H](C)[C@@H](O)[C@]1(C)O` [Clarithromycin], the “Elimination Half-life” value [1, 13] is given as 3 to 7 h.

In the case of `C#C[C@]1(O)CC[C@H]2[C@@H]3CCC4=Cc5oncc5C[C@]4(C)[C@H]3CC[C@@]21C` [Danazol], the “Elimination Half-life” value [1, 13] is given as 24 to 26 h.

In the case of `CC[C@H]1OC(=O)[C@H](C)[C@@H](O[C@H]2C[C@@](C)(OC)[C@@H](O)[C@H](C)O2)[C@H](C)[C@@H](O[C@@H]2O[C@H](C)C[C@H](N(C)C)[C@H]2O)[C@](C)(O)C[C@@H](C)C(=O)[C@H](C)[C@@H](O)[C@]1(C)O` [Erythromycin], the “Elimination Half-life” value [1, 13] is listed as 2 h.

For `Cc1ccc(C)c(OCCCC(C)(C)C(=O)O)c1` [Gemfibrozil], the “Elimination Half-life” value [1, 14] is listed as 1 to 2 h.

In the case of `CCC(C)n1ncn(-c2ccc(N3CCN(c4ccc(OCC5COC(Cn6cncn6)(c6ccc(Cl)cc6Cl)O5)cc4)CC3)cc2)c1=O` (stereo not drawn) [Itraconazole], the “Elimination Half-life” value ([1]; Table 11, single dose) is given as 21 h and the “Elimination Half-life” value ([1]; Table 11, steady state) is given as 64 h.

For `CC(C)(O)c1ccccc1CC[C@@H](SCC1(CC(=O)O)CC1)c1cccc(/C=C/c2ccc3ccc(Cl)cc3n2)c1` [Montelukast], the “Elimination Half-life” value [1, 14] is given as 3 to 6 h (drug insert).

In the case of `CCc1nn(CCCN2CCN(c3cccc(Cl)c3)CC2)c(=O)n1CCOc1ccccc1` [Nefazodone], the “Elimination Half-life” value [1, 13] is given as 2 to 4 h.

In the case of `O=C1NC(=O)C(c2ccccc2)(c2ccccc2)N1` [Phenytoin], the “Elimination Half-life” value [1, 13] is given as 7 to 42 h.

In the case of `CCc1ccc(CCOc2ccc(CC3SC(=O)NC3=O)cc2)nc1` (stereo not drawn) [Pioglitazone], the “Elimination Half-life” value [1, 14] is listed as 3 to 7 h.

For `O=c1c(O)c(-c2ccc(O)c(O)c2)oc2cc(O)cc(O)c12` [Quercetin], the “Elimination Half-life” value [1, 14] is given as less than 2 h.

In the case of `CN(CCOc1ccc(CC2SC(=O)NC2=O)cc1)c1ccccn1` (stereo not drawn) [Rosiglitazone], the “Elimination Half-life” value [1, 14] is given as 16 to 24 h.

In the case of `CC[C@H]1OC(=O)[C@H](C)C(=O)[C@H](C)[C@@H](O[C@@H]2O[C@H](C)C[C@H](N(C)C)[C@H]2O)[C@](C)(OC)C[C@@H](C)C(=O)[C@H](C)[C@H]2N(CCCCn3cnc(-c4cccnc4)c3)C(=O)O[C@]12C` [Telithromycin], the “Elimination Half-life” value [1, 13] is given as 10 h.

For `COc1cc(Cc2cnc(N)nc2N)cc(OC)c1OC` [Trimethoprim], the “Elimination Half-life” value [1, 14] is listed as 8 to 10 h.

With `Cc1cc(Nc2ncnc3ccc(NC4=NC(C)(C)CO4)cc23)ccc1Oc1ccn2ncnc2c1` [Tucatinib, tucatinib] the “Observed TGI (%)” value [2] was 65%, the “Observed TGI (%)” value (CTG-0784 CRC PDX model) was 50% and the “Observed TGI (%)” value [3] was 110%. For the same molecule, the “Observed TGI (%)” value [4] was 91%, the “Observed TGI (%)” value (CTG-0121 CRC PDX model) was 104% and the “Observed TGI (%)” value [5] was 69%. The “Observed TGI (%)” value [6] was 63%, the “Observed TGI (%)” value [7] was 48% and the “Observed TGI (%)” value [8] was 48%. For the same molecule, the “Observed TGI (%)” value [9] was 49%, the Response in vitro (Calu-3 cells) was “good responses” and the “Observed TGI (%)” value (CTG-0383 CRC PDX model) was 117%. For the same molecule, the Response in vitro (NCI-H2170 cells) was “good responses” and the “Elevation of liver function tests” value [10] was “Grade 3 and 4 elevation of LFTs have been seen in some patients”.

For `C[C@@H](c1ncncc1F)[C@](O)(Cn1cncn1)c1ccc(F)cc1F` [Voriconazole], the “Elimination Half-life (hours)” value [1, 13] is listed as “Dose dependent”.

In the case of `CC(=O)N1CCN(c2ccc(OCC3COC(Cn4ccnc4)(c4ccc(Cl)cc4Cl)O3)cc2)CC1` (stereo not drawn) [ketoconazole (systemic), ketoconazole], the “Elimination Half-life” value [1, 13] is listed as 2 to 8 h.

For `CS(=O)(=O)CCNCc1ccc(-c2ccc3ncnc(Nc4ccc(OCc5cccc(F)c5)c(Cl)c4)c3c2)o1` [lapatinib], the Toxicities [11] is given as “rash, diarrhea, and fatigue”.

For panitumumab, the “ORR on previous treatment” value [12] is listed as 0%.
